# Literature values as cited in patent US9637723B2, “Generation of functional and durable endothelial cells from human amniotic fluid-derived cells” (Cornell University, priority 2012, dated 2017).
# Where two headings read alike, the source gives them in different places.
# Target: T1, ALK5 (Homo sapiens, UniProt P36897)
# T1 sequence (P36897 34-503): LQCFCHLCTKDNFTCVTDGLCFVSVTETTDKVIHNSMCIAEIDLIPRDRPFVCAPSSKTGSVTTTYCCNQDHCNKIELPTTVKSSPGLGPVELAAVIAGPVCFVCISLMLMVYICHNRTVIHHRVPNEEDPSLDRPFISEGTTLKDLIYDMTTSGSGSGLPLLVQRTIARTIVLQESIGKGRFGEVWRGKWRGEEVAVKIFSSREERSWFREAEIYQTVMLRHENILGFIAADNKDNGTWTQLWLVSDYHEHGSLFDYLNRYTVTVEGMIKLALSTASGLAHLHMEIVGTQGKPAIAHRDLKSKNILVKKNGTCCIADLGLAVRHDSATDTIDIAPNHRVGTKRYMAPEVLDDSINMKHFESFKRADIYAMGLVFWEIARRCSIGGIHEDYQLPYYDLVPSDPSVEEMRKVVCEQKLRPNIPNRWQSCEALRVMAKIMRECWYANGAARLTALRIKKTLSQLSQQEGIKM
# [1] = as listed for compounds available through Tocris Bioscience
Function,SMILES,Function [1]
–,"Cc1cccc(-c2nn(C(=S)Nc3ccccc3)cc2-c2ccnc3ccccc23)n1 [A 83-01, 3-(6-Methyl-2-pyridinyl)-N-phenyl-4-(4-quinolinyl)-1H-pyrazole-1-carbothioamide]","(Selective inhibitor of ALK5, ALK4 and ALK7)"
(Selective inhibitor of ALK5),"c1ccc(-c2n[nH]cc2-c2ccnc3ccccc23)nc1 [LY 364947, 4-[3-(2-Pyridinyl)-1H-pyrazol-4-yl]-quinoline]",–
–,"Cc1cccc(-c2n[nH]cc2-c2ccc3ncccc3n2)n1 [SJN 2511, 2-(3-(6-Methylpyridine-2-yl)-1H-pyrazol-4-yl)-1,5-naphthyridine]",(Selective inhibitor of ALK5)
